System: Cochliobolus miyabeanus
Assay: Activity against brown spot of rice caused by Cochliobolus miyabeanus, protective application
Assay type: in vivo
Settings: individual active compound, inoculated next day, assessed after six days
Method: The active compounds, separately or jointly, were prepared as a stock solution with 0.25% by weight of active compound in acetone or DMSO. 1% by weight of the emulsifier Uniperol® EL (wetting agent having emulsifying and dispersing action based on ethoxylated alkylphenols) was added to this solution, and the solution was diluted with water to the desired concentration.
Use Example—Activity Against Brown Spot of Rice Caused by Cochliobolus Miyabeanus, Protective Application
Leaves of potted rice seedlings of the cultivar “Tai-Nong 67” were sprayed to runoff point with an aqueous suspension of the concentration of active compound stated below. The next day, the plants were inoculated with an aqueous spore suspension of Cochliobolus miyabeanus. The test plants were then placed in climatized chambers at 22-24° C. and 95-99% relative atmospheric humidity for six days. The extent of the development of the infection on the leaves was then determined visually.
Evaluation was carried out by determining the percentage of infected plants. These percentages were converted into efficacies.
The efficacy (E) is calculated as follows using Abbot's formula: E=(1−α/β)·100 • α corresponds to the fungicidal infection of the treated plants in % and • β corresponds to the fungicidal infection of the untreated (control) plants in %
An efficacy of 0 means that the infection level of the treated plants corresponds to that of the untreated control plants; an efficacy of 100 means that the treated plants are not infected.
The expected efficacies of mixtures of active compounds are determined using Colby's formula (R.S. Colby, Weeds, 15, 20-22, 1967) and compared with the observed efficacies.
Colby's Formula: E=x+y−x·y/100 • E expected efficacy, expressed in % of the untreated control, when using the mixture of the active compounds A and B at the concentrations a and b • x efficacy, expressed in % of the untreated control, when using the active compound A at the concentration a • y efficacy, expressed in % of the untreated control, when using the active compound B at the concentration b

Structure (SMILES) | Efficacy in % of the untreated control (4 ppm in the spray liquor) [%] | Efficacy in % of the untreated control (1 ppm in the spray liquor) [%]
CC1CCN(c2c(-c3c(F)cccc3Cl)c(Cl)nc3ncnn23)CC1 [A] | 44 | 
CC1CCN(c2c(-c3c(F)cc(F)cc3F)c(Cl)nc3ncnn23)CC1 [I, 5-chloro-7-(4-methylpiperidin-1-yl)-6-(2,4,6-trifluorophenyl)-[1,2,4]triazolo[1,5-a]pyrimidine] | 33 | 
CC1=C(C(=O)Nc2ccccc2)SCCO1 [II (carboxin), N-phenyl-2-methyl-5,6-dihydro-[1,4]oxathiine-3-carboxamide] | 0 | 0
C[C@H](Nc1c(-c2c(F)cc(F)cc2F)c(Cl)nc2ncnn12)C(F)(F)F [B] | 44 | 

Reference: patent US20070099939A1, “Fungicidal mixtures for controlling rice pathogens” (priority 2003, published 2007)
